The text below walks through data of patent US20110124614A1, “Methods And Compositions For The Treatment of Autoimmune Disorders” (priority 2008, published 2011).

Data set [1] deals with CNS infiltration and demyelination in GPR30KO EAE mice. Put plainly: Spinal cord histology (H&E, LFB-PAS), GPR30KO EAE mice. The note with it: E2-treated GPR30-KO mice, FIG. 1B. It is filed as in vivo, mouse. The source says: Spinal cords were dissected out for histology. Intact spinal columns were removed and dissected after fixation in 4% paraformaldehyde, dehydrated and embedding in paraffin. To examine neuroinflammation, the sections were stained with hematoxylin and eosin (H&E). To examine demyelination, the sections were stained with Luxon fast blue plus periodic acid Schiff (LFB-PAS).

In data set [2] the test system is experimental autoimmune encephalomyelitis (EAE) in WT C57BL/6 female mice. The data set is described as follows: EAE clinical scoring, E2 pellets, WT mice (Example II). It is filed as in vivo, mouse.
The subject of data set [3] is EAE in GPR30KO female mice. The data set is described as follows: EAE clinical scoring, E2 pellets, GPR30KO mice (Example II). The format is in vivo, mouse. The note with it: E2 treated GPR30KO mice, 2.5 mg/60 day pellet.
Data set [4] is described as follows: Serum E2 level by radioimmunoassay in E2-implanted mice. It is filed as in vivo, mouse. Conditions: mice with 2.5 mg/60 day release E2 pellets; RIA; FIG. 3. The procedure: Serum levels of E2 were determined by radioimmunoassay (RIA) after Sephadex LH-20 column chromatography (GE Healthcare Life Sciences, Piscataway, N.J.). Representative animals were bled by cardiac puncture, and the blood was allowed to clot at 4° C. overnight. The samples were centrifuged, and the sera were collected and stored at −80° C. until hormone analysis was performed. All samples were analyzed in a single assay for each hormone.

Data set [5] concerns EAE in GPR30KO mice. Put plainly: EAE clinical scoring, G-1 or E2 pellets, GPR30KO mice (Example IV). The format is in vivo, mouse. The note with it: for CDI / Daily / Mortality / Onset / Peak / Incidence: GPR30KO.
Data set [6] relates to cytokine secretion by splenocytes of PD-1KO immunized mice. Put plainly: Cytokine secretion of mMog-35-55 stimulated splenocytes, Luminex, PD-1KO mice. The format is in vivo, mouse. The note with it: G-1 treated PD-1KO mice. The method, then: PD-1KO (Dr. […] One week after implantation experimental autoimmune encephalomyelitis (EAE) was induced. Splenocytes were harvested from […] cell proliferation and cytokine secretion in 48 h supernatants. (*P<0.05, or **P<0.01 compared to placebo). Lymph node and spleen cells were cultured at 4×10^6 cells/well in a 24 well flat-bottom culture plate in stimulation medium (RPMI 1640, 1% sodium pyruvate, 1% L-glutamine, 0.4% 2-β-ME, 10% FBS) with 25 μg/ml mMog-35-55 peptide for 48H. Supernatants were then harvested and stored at -80° C. until tested for cytokines. Culture supernatants were assessed for cytokine levels using a Luminex Bio-Plex mouse cytokine assay kit (BioRad, Hercules, Calif.) following the manufacturer's instructions. The following cytokines were determined in a single assay in three separate experiments: IL-1βIFN-γ, TNF-α, IL-2, IL-4, IL-5. IL-6, IL-12, IL-13, and IL-17. […] This cytokine profile was drastically altered in G-1 treated PD-1Ko mice. The decrease of Il-17 and increase of Il-6, Il-10 and IFN-γ production were abolished, whereas the reduction in IL-2 and Il-4 remained. Thus PD-1 was required for […] downregulation of IL-17 but not Il-2 and Il-4, and upregulation of IL-6, Il10 and IFN-γ.

Data set [7] deals with liver, eyes, heart, mammary gland, brain, spleen, kidney, muscle, lung. The data set is described as follows: H&E organ histology in G-1 treated naive mice. The format is in vivo, mouse. The note with it: 1.8 mg G-1 treated naive mice. The source says:
(§1) Treatment with G-1 in viva lacked the “estrogenic effects” of E2.

Data set [8] concerns uteri. The data set is described as follows: Uterine weight (estrogenic effect). Details: species or system mouse. The note with it: G-1 treatment in vivo, FIG. 2E.
Text: as §1

The test system of data set [9] is splenocytes of PD-1KO EAE mice. Put plainly: Ex vivo T cell proliferation to mMOG-35-55, PD-1KO mice. It is filed as in vivo, mouse. The note with it: G-1 treatment, FIG. 6B. The procedure: Splenocytes and lymph node cells were harvested ex-vivo from G-1 and E2 implanted mice and cultured in a 96-well flat bottom tissue culture plate at 4×10^5 cells/well in stimulation medium in the presence of APC, irradiated (2500 rad) syngenic thymocytes at a ration of 1:10 (T:APCs) wither with or without mMog 35-55 peptide at varying concentrations. The cells were incubated for 3 days at 37° C. in 7% CO2 and pulsed with 0.5 μCi of [^3H] thymidine (Perkin-Elmer, Boston, Mass.) for the final 18 h of incubation. The cells were harvested onto glass fiber filters, and incorporated radioactivity was measured by a liquid scintillation counter. The cpm values (mean±SD) were calculated from triplicate wells. Stimulation index (SI) was calculated by dividing the experimental cpm by the control cpm.
Splenocytes from placebo and G-1 treatment groups were evaluated for T cell proliferation and cytokine secretion in 48 h supernatants.

[10] abbreviates: WT, 2.5 mg/60 day release E2 pellet, 25 days.
The mark [11] stands for this setting: 2.5 mg/60 day E2 pellet, 29 days.
[12] abbreviates: 1.8 mg/40 day G-1 pellet, 29 days.

Marks after values point to notes of the source that are not given here.

On to `C[C@]12CC[C@@H]3c4ccc(O)cc4CC[C@H]3[C@@H]1CC[C@@H]2O` [E2, 17β estradiol], for which the “cellular infiltration and demyelination in CNS” value in [1] is on record as “visibly present, but at a reduced level”. Further, the “clinical EAE (in words)” value in [2] (E2-treated WT mice, 2.5 mg/60 day pellet) is “no sign of the disease”; in data set [3] it was “delayed onset and were only partially protected from EAE”. For the same compound, the Incidence is recorded as 0/10 in data set [2] (WT, 2.5 mg/60 day release E2 pellet one week before immunization, concluded 25 days after immunization) and 4/7 in data set [5] (2.5 mg/60 day release E2 pellet, 29 days). In addition, the values for the CDI in data set [2] (setting [10]) and in data set [5] (setting [11]) were 0** and 17.2 ± 17.4, respectively. The figures for the Daily in [2] (setting [10]) and in data set [5] (setting [11]) were 0** and 3.7 ± 1.3, respectively. The figures for the Mortality in [2] (setting [10]) and in data set [5] (setting [11]) were 0/10 and 0/7, respectively. Also, the Peak is reported as 0** in data set [2] (WT, 2.5 mg/60 day release E2 pellet, 25 days, EAE score scale 0-6) and 2.5 ± 2.3 in data set [5] (setting [11]). Moreover, the “serum E2 levels” value in data set [4] lay within 1.5 to 2 ng/mL. In [5] (E2 2.5 mg/60 day pellet, GPR30KO mice), the “protective effect against EAE (in words)” value is “only partially offset by the absence of GPR30”. Further, in [5] (setting [11]), the Onset is listed as 18.0 ± 1.4.
Turning to `CC(=O)c1ccc2c(c1)C1C=CCC1C(c1cc3c(cc1Br)OCO3)N2` (centres unmarked) [G-1], in data set [6], the “decrease of Il-17 production” value is “abolished”, the “increase of IFN-γ production” value is “abolished”, the “increase of Il-6 production” value was “abolished” and the “increase of Il-10 production” value is given as “abolished”. For the same compound, in data set [6], the “reduction in IL-2” value is “remained” and the “reduction in Il-4” value is listed as “remained”. Besides, the “abnormalities by H&E staining in liver, eyes, heart, mammary gland, brain, spleen, kidney, muscle or lung” value in data set [7] is “no abnormalities”. Further, the weight of uteri result in [8] is given as “did not significantly change”. Moreover, the “protection against EAE (in words)” value in data set [5] (G-1 1.8 mg/40 day pellet, GPR30KO mice) is “completely ineffective”. For the same compound, in [5] (setting [12]), the CDI is given as 59.9 ± 13.4, the Daily amounted to 3.0 ± 0.7, the Mortality is 0/8 and the Onset is reported as 13.8 ± 1.2. The same compound came in with a Peak in data set [5] (setting [12]) of 4.5 ± 0.7. Besides, in data set [5] (1.8 mg/40 day release G-1 pellet, concluded 29 days after immunization), the Incidence was 8/8. Besides, the “T cell proliferation to mMog-35-55” value in data set [9] is reported as “did not significantly change”.
